{"source": "patent US20080199423A1", "about": "“Methods of Using Apo2l Receptor Agonists and Ink Cell Activators” (GENENTECH, INC., priority 2004, published 2008)", "key": {"NK cells": {"system": "NK cells", "experiment": "Microarray (Affymetrix U133) gene expression analysis of poly(I:C)-treated NK cells", "type": "cell-based, human", "details": "for FoldChange / log10-FoldChange: relative to untreated NK cells", "protocol": "A microarray based gene expression analysis using high-density oligonucleotide arrays (GeneChip, Affymetrix) was performed using RNA from resting and poly(I:C)-treated NK cells (NK cells were obtained and purified from 4 healthy donors using the technique described in Example 1 above). The NK cells were treated with poly(I:C) (50 μg/ml, Pharmacia) overnight in RPMI 1640 supplemented with heat inactivated 10% FCS, penicillin, streptomycin, 10 mM sodium pyruvate, 2 mM L-glutamine and 10 mM HEPES. RNA was isolated using a RNeasy kit (Qiagen), and treated with RNase-free DNase-I (Ambion) to ensure removal of contaminating DNA. NK cells were lysed in lysis buffer (50 mM HEPES pH7.5, 150 mM NaCl, 1.5 mM MgCl2, 1 mM EGTA, 10% glycerol and 1% Triton X-100, supplemented with Complete Protease Inhibitor Cocktail (Roche).\nAffymetrix U133A and B GeneChip probe arrays were used to identify differentially expressed transcripts. Initially, the genes were ranked according to concordance in the pairwise comparison, and the Mann-Whitney pairwise comparison test was used to calculate significance. Genes for which the concordance was 100% were chosen for further analysis. This approach was previously validated to identify differentially expressed genes by confirming with real time RT-PCR. To determine confidence intervals shown in Table 1, the average log10-signal was computed for each probe set of the genes of interest, or the treatment and control groups. The estimated log10 fold change was defined as the difference between these averages. A pooled estimate of the standard deviation about the two groups' averages (computed separately for each probe set) was used to compute a 95% confidence interval for the log10 fold change. The estimated log10 fold change and the two endpoints of its 95% confidence interval were exponentiated back to the original signal scale, providing an estimate of fold change and a corresponding 95% confidence interval. Additional information about the U133 probe sets is available from the manufacturer, Affymetrix.\nFold change values and associated 95% confidence intervals (degree of freedom=6) were determined for genes of interest upon treatment with poly(I:C) relative to untreated NK cells. Data for each probe set present on the Affymetrix U133 chip series corresponding to the genes of interest is shown."}, "B16BL10 melanoma cells": {"system": "B16BL10 melanoma cells", "experiment": "51Cr release cytotoxicity assay on B16 melanoma target cells", "type": "cell-based, mouse", "details": "NK cells stimulated with agent", "protocol": "(§1) Purified NK cells were treated with poly(I:C) or R-848 and incubated with B16BL10 melanoma cells (ATCC) at the indicated ratios. Purified NK cells stimulated with R-848 were incubated with HCT116 target cells (ATCC) at the indicated ratios. The role of Apo2L/TRAIL in lysis assays in panels B and C was determined by preincubation with neutralizing (5C2) and non-neutralizing (1D1) anti-Apo2L/TRAIL mAbs. The data has been confirmed with NK cells from at least 3 donors and less that 5% SD was observed.\n(§2) For the cytotoxicity assays, target cells were labeled with 100 mCi ^51Cr for 1 hour at 37° C. and then washed 3 times before use. 10^4 target cells were added to varying numbers of effector cells at the indicated ratios and incubated in duplicate wells for 4 hours at 37° C., 5% CO2, and supernatants were used to determine ^51Cr released using a Gamma counter. The cytotoxicity assays were performed in round bottom 96 well plates and the percent specific lysis was calculated as 100× (experimental cpm-spontaneous cpm)/(total cpm-spontaneous cpm). The role of Apo2L/TRAIL expressed by NK cells in the lysis of target cells was evaluated using anti-Apo2L/TRAIL mAbs (5C2 and 1D1, Genentech, Inc.). Isotype control antibodies were obtained from BD Biosciences."}, "HCT116 cells": {"system": "HCT116 cells", "experiment": "51Cr release cytotoxicity assay on HCT116 target cells", "type": "cell-based", "details": "NK cells stimulated with agent", "protocol": "as §1, §2"}, "[1]": {"details": "gene Apo2L, probe set 202687_s_at"}, "[2]": {"details": "gene Apo2L, probe set 202688_at"}, "[3]": {"details": "gene Apo2L, probe set 214329_x_at"}, "[4]": {"details": "gene CCL19, probe set 210072_at"}, "[5]": {"details": "gene CCL20, probe set 205476_at"}, "[6]": {"details": "gene CCL21, probe set 204606_at"}, "[7]": {"details": "gene FasL, probe set 211333_s_at"}, "[8]": {"details": "gene Granulysin, probe set 37145_at"}, "[9]": {"details": "gene Granulysin, probe set 205495_s_at"}, "[10]": {"details": "gene Granzyme A, probe set 205488_at"}, "[11]": {"details": "gene Granzyme B, probe set 210164_at"}, "[12]": {"details": "gene Granzyme H, probe set 210321_at"}, "[13]": {"details": "gene Granzyme M, probe set 207460_at"}, "[14]": {"details": "gene IL-8, probe set 202859_x_at"}, "[15]": {"details": "gene IL-8, probe set 211506_s_at"}, "[16]": {"details": "gene NKG2-D, probe set 205821_at"}, "[17]": {"details": "gene NKG2-D, probe set 210690_at"}, "[18]": {"details": "gene NKG2A, probe set 206785_s_at"}, "[19]": {"details": "gene NKp30, probe set 210629_x_at"}, "[20]": {"details": "gene NKp30, probe set 211581_x_at"}, "[21]": {"details": "gene NKp30, probe set 211582_x_at"}, "[22]": {"details": "gene NKp30, probe set 214181_x_at"}, "[23]": {"details": "gene NKp30, probe set 214574_x_at"}, "[24]": {"details": "gene Perforin 1, probe set 214617_at"}, "[25]": {"details": "gene TNFα, probe set 207113_s_at"}, "[26]": {"details": "poly(I:C) treatment, microarray"}}, "data": [{"substance": "poly(I:C)", "values": [{"measurement": "FoldChange", "setting": "NK cells; [1]", "value": 13.42}, {"measurement": "log10-FoldChange", "setting": "NK cells; [1]", "value": 1.13}, {"measurement": "FoldChange", "setting": "NK cells; [2]", "value": 9.67}, {"measurement": "log10-FoldChange", "setting": "NK cells; [2]", "value": 0.99}, {"measurement": "FoldChange", "setting": "NK cells; [3]", "value": 5.85}, {"measurement": "log10-FoldChange", "setting": "NK cells; [3]", "value": 0.77}, {"measurement": "FoldChange", "setting": "NK cells; [4]", "value": 34.71}, {"measurement": "log10-FoldChange", "setting": "NK cells; [4]", "value": 1.54}, {"measurement": "FoldChange", "setting": "NK cells; [5]", "value": 7.96}, {"measurement": "log10-FoldChange", "setting": "NK cells; [5]", "value": 0.9}, {"measurement": "FoldChange", "setting": "NK cells; [6]", "value": 1.2}, {"measurement": "log10-FoldChange", "setting": "NK cells; [6]", "value": 0.08}, {"measurement": "FoldChange", "setting": "NK cells; gene CCR7, probe set 206337_at", "value": 4.79}, {"measurement": "log10-FoldChange", "setting": "NK cells; gene CCR7, probe set 206337_at", "value": 0.68}, {"measurement": "FoldChange", "setting": "NK cells; gene FasL, probe set 210865_at", "value": 2.37}, {"measurement": "log10-FoldChange", "setting": "NK cells; gene FasL, probe set 210865_at", "value": 0.37}, {"measurement": "FoldChange", "setting": "NK cells; [7]", "value": 2.49}, {"measurement": "log10-FoldChange", "setting": "NK cells; [7]", "value": 0.4}, {"measurement": "FoldChange", "setting": "NK cells; [8]", "value": 1.18}, {"measurement": "log10-FoldChange", "setting": "NK cells; [8]", "value": 0.07}, {"measurement": "FoldChange", "setting": "NK cells; [9]", "value": 1.25}, {"measurement": "log10-FoldChange", "setting": "NK cells; [9]", "value": 0.1}, {"measurement": "FoldChange", "setting": "NK cells; [10]", "value": 0.83}, {"measurement": "log10-FoldChange", "setting": "NK cells; [10]", "value": "−0.08"}, {"measurement": "FoldChange", "setting": "NK cells; [11]", "value": 1.04}, {"measurement": "log10-FoldChange", "setting": "NK cells; [11]", "value": 0.02}, {"measurement": "FoldChange", "setting": "NK cells; [12]", "value": 0.58}, {"measurement": "log10-FoldChange", "setting": "NK cells; [12]", "value": "−0.24"}, {"measurement": "FoldChange", "setting": "NK cells; [13]", "value": 0.81}, {"measurement": "log10-FoldChange", "setting": "NK cells; [13]", "value": "−0.09"}, {"measurement": "FoldChange", "setting": "NK cells; gene IFNγ, probe set 210354_at", "value": 14.45}, {"measurement": "log10-FoldChange", "setting": "NK cells; gene IFNγ, probe set 210354_at", "value": 1.16}, {"measurement": "FoldChange", "setting": "NK cells; gene IL-6, probe set 205207_at", "value": 10.43}, {"measurement": "log10-FoldChange", "setting": "NK cells; gene IL-6, probe set 205207_at", "value": 1.02}, {"measurement": "FoldChange", "setting": "NK cells; [14]", "value": 4.07}, {"measurement": "log10-FoldChange", "setting": "NK cells; [14]", "value": 0.61}, {"measurement": "FoldChange", "setting": "NK cells; [15]", "value": 3.42}, {"measurement": "log10-FoldChange", "setting": "NK cells; [15]", "value": 0.53}, {"measurement": "FoldChange", "setting": "NK cells; [16]", "value": 0.86}, {"measurement": "log10-FoldChange", "setting": "NK cells; [16]", "value": "−0.07"}, {"measurement": "FoldChange", "setting": "NK cells; [17]", "value": 0.66}, {"measurement": "log10-FoldChange", "setting": "NK cells; [17]", "value": "−0.18"}, {"measurement": "FoldChange", "setting": "NK cells; [18]", "value": 0.97}, {"measurement": "log10-FoldChange", "setting": "NK cells; [18]", "value": "−0.01"}, {"measurement": "FoldChange", "setting": "NK cells; [19]", "value": 0.38}, {"measurement": "log10-FoldChange", "setting": "NK cells; [19]", "value": "−0.42"}, {"measurement": "FoldChange", "setting": "NK cells; [20]", "value": 0.26}, {"measurement": "log10-FoldChange", "setting": "NK cells; [20]", "value": "−0.59"}, {"measurement": "FoldChange", "setting": "NK cells; [21]", "value": 0.19}, {"measurement": "log10-FoldChange", "setting": "NK cells; [21]", "value": "−0.72"}, {"measurement": "FoldChange", "setting": "NK cells; [22]", "value": 0.22}, {"measurement": "log10-FoldChange", "setting": "NK cells; [22]", "value": "−0.67"}, {"measurement": "FoldChange", "setting": "NK cells; [23]", "value": 0.25}, {"measurement": "log10-FoldChange", "setting": "NK cells; [23]", "value": "−0.6"}, {"measurement": "FoldChange", "setting": "NK cells; [24]", "value": 1.3}, {"measurement": "log10-FoldChange", "setting": "NK cells; [24]", "value": 0.12}, {"measurement": "FoldChange", "setting": "NK cells; [25]", "value": 2.68}, {"measurement": "log10-FoldChange", "setting": "NK cells; [25]", "value": 0.43}, {"measurement": "Expression of mRNA for FasL and TNF-alpha", "setting": "NK cells; poly(I:C) treatment (activation of TLR3)", "value": "smaller, but reproducible increase"}, {"measurement": "Decrease in expression of NKp30 in NK cells", "setting": "NK cells; [26]", "value": "3-5 fold"}, {"measurement": "Decrease in expression of granzyme H in NK cells", "setting": "NK cells; [26]", "value": "3-5 fold"}, {"measurement": "Expression of mRNAs encoding perforin, granulysin, granzymes A, B, M, NKG2D and NKp44", "setting": "NK cells; [26]", "value": "did not significantly alter"}, {"measurement": "Increase in expression of Apo2L/TRAIL in NK cells", "setting": "NK cells; [26]", "value": "~10", "unit": "fold"}, {"measurement": "Killing of B16 melanoma cells by stimulated NK cells", "setting": "B16BL10 melanoma cells", "value": "efficiently killed"}, {"measurement": "Cytotoxicity of stimulated NK cells towards HCT116 cells", "setting": "HCT116 cells", "value": "increased cytoxicity"}]}]}
